Source: ChEMBL document CHEMBL6127055, “Discovery of the therapeutic potential of PPARδ agonist bearing 1,3,4- thiadiazole in inflammatory disorders” (Eur J Med Chem, 2024)

How the values were obtained:
Type in all cases: ADME, Microsome
[1] = target: T1, CYP1A2 (Homo sapiens, UniProt P05177); assay: Inhibition of CYP1A2 in human liver microsomes at 10 uM using phenacetin O-deethylase as substrate preincubated for 5 mins followed by NADPH regenerating system addition and measured after 15 mins by LC-MS/MS analysis relative to control; conditions: probe phenacetin (phenacetin O-deethylase), time 20 min
T1 sequence (P05177 whole entry): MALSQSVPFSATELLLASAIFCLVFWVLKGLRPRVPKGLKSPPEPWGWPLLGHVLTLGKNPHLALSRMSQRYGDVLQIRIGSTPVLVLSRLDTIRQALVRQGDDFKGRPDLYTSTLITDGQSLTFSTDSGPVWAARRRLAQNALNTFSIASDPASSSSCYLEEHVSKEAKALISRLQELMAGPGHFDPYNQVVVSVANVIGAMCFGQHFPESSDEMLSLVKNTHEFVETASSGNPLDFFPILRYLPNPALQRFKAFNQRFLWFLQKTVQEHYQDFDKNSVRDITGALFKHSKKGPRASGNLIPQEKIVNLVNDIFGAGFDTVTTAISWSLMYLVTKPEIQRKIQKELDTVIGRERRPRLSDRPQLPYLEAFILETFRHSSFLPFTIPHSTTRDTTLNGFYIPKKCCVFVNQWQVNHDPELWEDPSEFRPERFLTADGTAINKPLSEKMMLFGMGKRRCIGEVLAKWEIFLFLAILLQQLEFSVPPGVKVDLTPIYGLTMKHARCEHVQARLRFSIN

[2] = target: CYP2C9 (Homo sapiens, UniProt P11712); assay: Inhibition of CYP2C9 in human liver microsomes at 10 uM using tolbutamide 4-hydroxylase as substrate preincubated for 5 mins followed by NADPH regenerating system addition and measured after 15 mins by LC-MS/MS analysis relative to control; conditions: probe tolbutamide (tolbutamide 4-hydroxylase), time 20 min
[3] = Metabolic stability in rat liver microsomes assessed as compound remaining at 1 uM after 30 mins in presence of NADPH regeneration system by LC-MS/MS analysis; conditions: read-out: Stability

Chain of CYP2C9 (P11712 whole entry): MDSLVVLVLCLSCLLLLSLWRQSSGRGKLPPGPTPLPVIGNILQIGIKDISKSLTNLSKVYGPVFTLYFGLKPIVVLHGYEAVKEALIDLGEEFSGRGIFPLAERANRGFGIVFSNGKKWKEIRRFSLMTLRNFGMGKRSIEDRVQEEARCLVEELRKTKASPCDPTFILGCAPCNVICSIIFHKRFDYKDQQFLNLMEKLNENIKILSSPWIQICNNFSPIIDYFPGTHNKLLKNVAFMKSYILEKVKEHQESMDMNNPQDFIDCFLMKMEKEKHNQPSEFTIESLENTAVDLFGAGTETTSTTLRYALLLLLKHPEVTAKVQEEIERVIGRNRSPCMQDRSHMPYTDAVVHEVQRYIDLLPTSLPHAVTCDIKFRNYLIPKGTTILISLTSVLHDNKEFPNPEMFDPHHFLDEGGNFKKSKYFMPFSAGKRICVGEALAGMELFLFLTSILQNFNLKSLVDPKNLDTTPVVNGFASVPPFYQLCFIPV

Cc1cc(SCc2nnc(-c3ccc(C(F)(F)F)cc3)s2)ccc1OCC(=O)O
inhibition at 0.25 h, 10 µM [1]: 12.4% | inhibition at 0.25 h, 10 µM [2]: 1.9% | remaining at 0.5 h, 1 µM [3]: 83.4%
